Measurements taken from article PMC10634346 (Cancer Research Communications, 2023).
Where two headings read alike, the source gives them in different places.

Assays:
[1] = test system: MCL1 mRNA in SU-DHL-10 cells; experiment: In vitro washout, MCL1 mRNA qPCR, SU-DHL-10; type: cell-based, human; conditions: 4 h treatment then washout, for 16 to 48 hours after treatment
Description: (§1) Evaluation of the pharmacodynamic extent and duration of CDK9 inhibition were performed in vitro using the human DLBCL cell lines SU-DHL-4 and SU-DHL-10, harboring MYC amplification and MYC overexpression with P57T mutation, respectively. Cells were seeded 18 hours prior to treatment for 4 hours with one of three CDK9 inhibitors, enitociclib (0.25 and1 µmol/L), atuveciclib (1 µmol/L) or KB-0742 (1 µmol/L), cells were washed, and incubation continued until 48 hours posttreatment. Samples were collected before treatment (−4), immediately after treatment (0), and at 1, 2, 4, 8, 12, 16, 24, and 48 hours after washout for RNA sequencing (RNA-seq), qPCR, and Western blotting analyses. Total RNA was extracted from blood of patients and cell lines using RNeasy Plus Mini Kit (QIAGEN, #74136) and cDNA prepared with the Maxima First Strand cDNA Synthesis Kit for RT-PCR (Thermo Fisher Scientific, K1642) according to manufacturer's instructions. The integrity of purified total RNA was evaluated using an Agilent 2100 Bioanalyzer system and RNA 6000 Nano Kit (Agilent, #5067-1511). Differential gene expression analysis was performed (Fios Genomics) from RNA-seq data (Discovery Life Sciences). MYC and MCL1 mRNA levels were measured by qPCR in vitro and in vivo, using a Taqman qPCR system (Thermo Fisher Scientific), TaqMan Fast Universal PCR Master Mix (2X) no AmpErase (#4352042) and TaqMan probes for MYC (Hs00153408_m1) and MCL1 (Hs03043899_m1). RNA-seq data were analyzed using DESeq2 ([35]).

[2] = test system: Myc protein in SU-DHL-10 tumors; experiment: Pharmacodynamics in SU-DHL-10 xenograft tumors, Myc protein; type: in vivo, C.B-17 SCID mice; conditions: single dose; within 4 to 8 hours postdose
Description: (§2) The levels of p-Ser2, p-Ser5 and total RNA polymerase II, Myc, Mcl-1, cleaved PARP (cPARP), and cleaved Caspase 3 were assessed by Western blotting and quantified near-infrared detection and background corrected quantification of fluorescence intensity on an Odyssey Imaging System with IRDye secondary antibodies (LI-COR Biosciences). For quantification, the protein levels were normalized to GAPDH or HSP90, expressed as a ratio to DMSO or vehicle control at matched timepoints. The normalized relative protein levels of p-Ser2 were used for a treatment effect comparison by performing an ANOVA using PROC MIXED in SAS. The ANOVA model included treatment, timepoints and their interactions as fixed effects. The least square means (LSM), differences between the LSMs and associated P values were generated. The following primary antibodies were used: Rpb1 NTD (D8L4Y) rabbit antibody [Cell Signaling Technology (CST), #14958], anti-RNA polymerase II subunit B1 (phospho CTD Ser-2, clone 3E10) rat antibody (Merck, 04-1571-I), recombinant anti-c-MYC rabbit antibody (Y69; Abcam, #ab32072), MCL1 (D5V5L) rabbit antibody (CST, #39224), cleaved-PARP (Asp214) (E2T4K) mouse antibody (CST, #32563), HSP90 (C45G5) rabbit antibody (CST, #4877), and GAPDH mouse antibody (Zytomed Systems, #ZYT-RGM2-6C5). […]

[3] = test system: Myc and Mcl-1 protein in SU-DHL-10 cells; experiment: In vitro washout, Myc and Mcl-1 protein Western blot, SU-DHL-10; type: cell-based, human; conditions: 1 µmol/L, 4 h treatment then washout
Description: (§3) Evaluation of the pharmacodynamic extent and duration of CDK9 inhibition were performed in vitro using the human DLBCL cell lines SU-DHL-4 and SU-DHL-10, harboring MYC amplification and MYC overexpression with P57T mutation, respectively. Cells were seeded 18 hours prior to treatment for 4 hours with one of three CDK9 inhibitors, enitociclib (0.25 and1 µmol/L), atuveciclib (1 µmol/L) or KB-0742 (1 µmol/L), cells were washed, and incubation continued until 48 hours posttreatment. Samples were collected before treatment (−4), immediately after treatment (0), and at 1, 2, 4, 8, 12, 16, 24, and 48 hours after washout for RNA sequencing (RNA-seq), qPCR, and Western blotting analyses.
The levels of p-Ser2, p-Ser5 and total RNA polymerase II, Myc, Mcl-1, cleaved PARP (cPARP), and cleaved Caspase 3 were assessed by Western blotting and quantified near-infrared detection and background corrected quantification of fluorescence intensity on an Odyssey Imaging System with IRDye secondary antibodies (LI-COR Biosciences). For quantification, the protein levels were normalized to GAPDH or HSP90, expressed as a ratio to DMSO or vehicle control at matched timepoints. The normalized relative protein levels of p-Ser2 were used for a treatment effect comparison by performing an ANOVA using PROC MIXED in SAS. The ANOVA model included treatment, timepoints and their interactions as fixed effects. […]

[4] = test system: p-Ser2 RNA polymerase II in SU-DHL-10 tumors; experiment: Pharmacodynamics in SU-DHL-10 xenograft tumors, p-Ser2; type: in vivo, C.B-17 SCID mice
Description: as §2

SU-DHL-10 = experiment: CellTiter-Glo cell viability, SU-DHL-10; type: cell-based; conditions: Homo sapiens, SU-DHL10
Description: (§4) Human DLBCL cell lines SU-DHL-4 (#ACC 495) and SU-DHL-10 (#ACC 576) were obtained from DSMZ (German Collection of Microorganisms and Cell Cultures). The supplier used PCR-based DNA profiling of polymorphic short tandem repeats for authentication and Mycoplasma testing prior to shipment. Cells were cultured in suspension at 37°C in a humidified atmosphere containing 5% CO2. CDK9 inhibitors KB-0742 (MedChemExpress, #HY-137478A), enitociclib, and atuveciclib ([…] Pharma, Inc.) were used. A subset of 35 lymphoma cell lines is from a 500-cell line panel where the effect of enitociclib on cell viability using CellTiter-Glo luminescent cell viability was determined (OmniScreen, CrownBioscience). Genetic status and gene expression level for MYC and MCL1 was obtained from CrownBioscience.

SU-DHL-4 = experiment: CellTiter-Glo cell viability, SU-DHL-4; type: cell-based; conditions: Homo sapiens
Description: as §4

[5] = Fraction unbound in cell media; type: in vitro ADME
[6] = test system: RNA polymerase II Ser2 phosphorylation (p-Ser2) in SU-DHL-4 cells; experiment: In vitro washout, p-Ser2 Western blot, SU-DHL-4; type: cell-based, human; conditions: 4-hour treatment then washout
Description: as §3
The levels of p-Ser2, p-Ser5 and total RNA polymerase II, Myc, Mcl-1, cleaved PARP (cPARP), and cleaved Caspase 3 were assessed by Western blotting and quantified near-infrared detection and background corrected quantification of fluorescence intensity on an Odyssey Imaging System with IRDye secondary antibodies (LI-COR Biosciences). For quantification, the protein levels were normalized to GAPDH or HSP90, expressed as a ratio to DMSO or vehicle control at matched timepoints. The normalized relative protein levels of p-Ser2 were used for a treatment effect comparison by performing an ANOVA using PROC MIXED in SAS. The ANOVA model included treatment, timepoints and their interactions as fixed effects. The least square means (LSM), differences between the LSMs and associated P values were generated. The following primary antibodies were used: Rpb1 NTD (D8L4Y) rabbit antibody [Cell Signaling Technology (CST), #14958], anti-RNA polymerase II subunit B1 (phospho CTD Ser-2, clone 3E10) rat antibody (Merck, 04-1571-I), recombinant anti-c-MYC rabbit antibody (Y69; Abcam, #ab32072), MCL1 (D5V5L) rabbit antibody (CST, #39224), cleaved-PARP (Asp214) (E2T4K) mouse antibody (CST, #32563), HSP90 (C45G5) rabbit antibody (CST, #4877), and GAPDH mouse antibody (Zytomed Systems, #ZYT-RGM2-6C5).

[7] = test system: panel of 35 human lymphoma cell lines; experiment: CellTiter-Glo cell viability, lymphoma cell line panel (OmniScreen); type: cell-based
Description: as §4

[8] = test system: MYC mRNA in SU-DHL-10 cells; experiment: In vitro washout, MYC mRNA qPCR, SU-DHL-10; type: cell-based, human; conditions: 4 h treatment then washout, for 16 to 48 hours after treatment
Description: as §1

Q: For COc1cc(F)ccc1-c1cc(Nc2cc(CS(C)(=N)=O)ccn2)ncc1F (centres unmarked) [enitociclib], which “inhibition of MCL1 mRNA levels” value [1] is on record?
A: approximately 75%

Q: And the “reduction of Myc protein levels in tumors” value [2]?
A: 50%

Q: And the “duration of sustained Myc and Mcl-1 protein depletion” value [3]?
A: 48 h

Q: And the “decrease of p-Ser2 levels in tumors” value ([4]; single dose 5 mg/kg, for 8 hours)?
A: greater than 50%

Q: What about the “p-Ser2 in tumors (in words)” value ([4]; single dose 10 and 15 mg/kg, 8 hours postdose timeframe) of the same compound?
A: depletion of p-Ser2

Q: What about the IC50 (SU-DHL-10) of the same compound?
A: 74 nM

Q: What about the IC50 (SU-DHL-4) of the same compound?
A: 43 nM

Q: And the fraction unbound [5]?
A: 0.666

Q: And the “decrease of p-Ser2 levels” value ([6]; 0.25 µmol/L)?
A: 50%

Q: What about the “duration of p-Ser2 decrease” value ([6]; 0.25 µmol/L) of the same compound?
A: up to 48 hours

Q: And the “duration of p-Ser2 decrease” value ([6]; 1 µmol/L)?
A: 48 h

Q: What about the IC50 ([7]; Homo sapiens, lymphoma cell lines, media fu = 66.6%, read-out: mean unbound IC50 for cytotoxicity) of the same compound?
A: ~67 nM

Q: And the IC50 ([7]; range over panel of 35 human lymphoma cell lines, read-out: IC50 (cell cytotoxicity))?
A: 43 to 152 nM

Q: What about the “inhibition of MYC mRNA levels” value [8] of the same compound?
A: approximately 75%
